The NIST ThermoML archive (doi:10.1016/j.jct.2008.06.017)
Numbers after ± are expanded uncertainties.

Experiments:
[1] = xn = mol fraction of the nth substance listed; details: Liquid, Vibrating tube method
[2] = Liquid, Vibrating tube method

C=CCOC(=O)C(=C)C [2-propenyl 2-methylpropenoate] + COC(=O)OC
[1]
Details | mass density [kg/m3]
293.15 K, x2 = 0 | 932.965 ± 0.14
293.15 K, x2 = 0.0254 | 935.07 ± 0.14
293.15 K, x2 = 0.0498 | 937.164 ± 0.13
293.15 K, x2 = 0.1006 | 941.619 ± 0.12
293.15 K, x2 = 0.1507 | 946.22 ± 0.12
293.15 K, x2 = 0.2 | 950.913 ± 0.11
293.15 K, x2 = 0.2505 | 955.966 ± 0.1
293.15 K, x2 = 0.2999 | 961.134 ± 0.096
293.15 K, x2 = 0.3499 | 966.623 ± 0.09
293.15 K, x2 = 0.4005 | 972.4 ± 0.084
293.15 K, x2 = 0.449 | 978.208 ± 0.08
293.15 K, x2 = 0.5 | 984.616 ± 0.075
293.15 K, x2 = 0.5499 | 991.215 ± 0.071
293.15 K, x2 = 0.5991 | 998.042 ± 0.067
293.15 K, x2 = 0.6502 | 1005.49 ± 0.066
293.15 K, x2 = 0.7 | 1013.17 ± 0.067
293.15 K, x2 = 0.7502 | 1021.34 ± 0.068
293.15 K, x2 = 0.8001 | 1029.9 ± 0.069
293.15 K, x2 = 0.8499 | 1039 ± 0.071
293.15 K, x2 = 0.9002 | 1048.71 ± 0.074
293.15 K, x2 = 0.9499 | 1058.87 ± 0.076
293.15 K, x2 = 0.975 | 1064.27 ± 0.078
303.15 K, x2 = 0 | 922.525 ± 0.14
303.15 K, x2 = 0.0253 | 924.591 ± 0.14
303.15 K, x2 = 0.0501 | 926.656 ± 0.14
303.15 K, x2 = 0.101 | 931.041 ± 0.13
303.15 K, x2 = 0.15 | 935.458 ± 0.12
303.15 K, x2 = 0.1999 | 940.145 ± 0.11
303.15 K, x2 = 0.2505 | 945.101 ± 0.1
303.15 K, x2 = 0.2999 | 950.165 ± 0.098
303.15 K, x2 = 0.3499 | 955.527 ± 0.092
303.15 K, x2 = 0.4003 | 961.195 ± 0.087
303.15 K, x2 = 0.447 | 966.662 ± 0.082
303.15 K, x2 = 0.5001 | 973.205 ± 0.077
303.15 K, x2 = 0.5501 | 979.68 ± 0.073
303.15 K, x2 = 0.5994 | 986.387 ± 0.069
303.15 K, x2 = 0.6502 | 993.661 ± 0.066
303.15 K, x2 = 0.7001 | 1001.19 ± 0.064
303.15 K, x2 = 0.7503 | 1009.19 ± 0.065
303.15 K, x2 = 0.8001 | 1017.58 ± 0.066
303.15 K, x2 = 0.8499 | 1026.47 ± 0.068
303.15 K, x2 = 0.9002 | 1035.99 ± 0.07
303.15 K, x2 = 0.9499 | 1046 ± 0.073
303.15 K, x2 = 0.975 | 1051.3 ± 0.075
313.15 K, x2 = 0 | 912.072 ± 0.14
313.15 K, x2 = 0.0247 | 914.028 ± 0.14
313.15 K, x2 = 0.0499 | 916.075 ± 0.14
313.15 K, x2 = 0.1002 | 920.29 ± 0.13
313.15 K, x2 = 0.1496 | 924.626 ± 0.12
313.15 K, x2 = 0.1997 | 929.2 ± 0.12
313.15 K, x2 = 0.2495 | 933.94 ± 0.11
313.15 K, x2 = 0.2999 | 938.979 ± 0.1
313.15 K, x2 = 0.3502 | 944.239 ± 0.095
313.15 K, x2 = 0.3999 | 949.688 ± 0.09
313.15 K, x2 = 0.4499 | 955.431 ± 0.085
313.15 K, x2 = 0.4997 | 961.436 ± 0.08
313.15 K, x2 = 0.5503 | 967.862 ± 0.076
313.15 K, x2 = 0.6001 | 974.504 ± 0.072
313.15 K, x2 = 0.6497 | 981.462 ± 0.069
313.15 K, x2 = 0.7001 | 988.916 ± 0.066
313.15 K, x2 = 0.7498 | 996.664 ± 0.063
313.15 K, x2 = 0.7998 | 1004.93 ± 0.063
313.15 K, x2 = 0.85 | 1013.71 ± 0.065
313.15 K, x2 = 0.8998 | 1023 ± 0.067
313.15 K, x2 = 0.9498 | 1032.83 ± 0.069
313.15 K, x2 = 0.9746 | 1037.94 ± 0.071

COC(=O)OC [dimethyl carbonate]
[2]
Details | mass density [kg/m3]
293.15 K | 1069.79 ± 0.068
303.15 K | 1056.75 ± 0.064
313.15 K | 1043.37 ± 0.06

C=CCOC(=O)C(=C)C [2-propenyl 2-methylpropenoate]
[2]
Details | mass density [kg/m3]
293.15 K | 932.965 ± 0.14
303.15 K | 922.525 ± 0.14
313.15 K | 912.072 ± 0.15

C=Cc1ccccc1 [styrene]
[2]
Details | mass density [kg/m3]
293.15 K | 906.26 ± 0.075
303.15 K | 897.392 ± 0.078
313.15 K | 888.472 ± 0.081

C=Cc1ccccc1 [styrene] + COC(=O)OC
[1]
Details | mass density [kg/m3]
293.15 K, x2 = 0 | 906.26 ± 0.075
293.15 K, x2 = 0.0246 | 909.146 ± 0.077
293.15 K, x2 = 0.0498 | 912.112 ± 0.076
293.15 K, x2 = 0.1006 | 918.267 ± 0.075
293.15 K, x2 = 0.1506 | 924.493 ± 0.073
293.15 K, x2 = 0.2004 | 930.891 ± 0.072
293.15 K, x2 = 0.2506 | 937.533 ± 0.07
293.15 K, x2 = 0.3008 | 944.38 ± 0.069
293.15 K, x2 = 0.3498 | 951.272 ± 0.067
293.15 K, x2 = 0.4007 | 958.655 ± 0.066
293.15 K, x2 = 0.4498 | 966.048 ± 0.065
293.15 K, x2 = 0.5001 | 973.84 ± 0.063
293.15 K, x2 = 0.5499 | 981.838 ± 0.062
293.15 K, x2 = 0.5996 | 990.075 ± 0.061
293.15 K, x2 = 0.6507 | 998.871 ± 0.06
293.15 K, x2 = 0.7001 | 1007.72 ± 0.062
293.15 K, x2 = 0.7496 | 1016.93 ± 0.065
293.15 K, x2 = 0.7997 | 1026.61 ± 0.067
293.15 K, x2 = 0.8501 | 1036.78 ± 0.07
293.15 K, x2 = 0.9001 | 1047.29 ± 0.074
293.15 K, x2 = 0.9499 | 1058.27 ± 0.077
293.15 K, x2 = 0.9747 | 1063.93 ± 0.079
303.15 K, x2 = 0 | 897.392 ± 0.077
303.15 K, x2 = 0.0262 | 900.37 ± 0.079
303.15 K, x2 = 0.0502 | 903.146 ± 0.079
303.15 K, x2 = 0.1004 | 909.105 ± 0.077
303.15 K, x2 = 0.1506 | 915.204 ± 0.076
303.15 K, x2 = 0.2005 | 921.462 ± 0.074
303.15 K, x2 = 0.2502 | 927.883 ± 0.073
303.15 K, x2 = 0.3001 | 934.514 ± 0.071
303.15 K, x2 = 0.3502 | 941.367 ± 0.07
303.15 K, x2 = 0.4 | 948.407 ± 0.068
303.15 K, x2 = 0.45 | 955.705 ± 0.067
303.15 K, x2 = 0.5003 | 963.262 ± 0.065
303.15 K, x2 = 0.5498 | 971.001 ± 0.064
303.15 K, x2 = 0.5998 | 979.074 ± 0.063
303.15 K, x2 = 0.6497 | 987.452 ± 0.062
303.15 K, x2 = 0.7007 | 996.305 ± 0.061
303.15 K, x2 = 0.7502 | 1005.27 ± 0.062
303.15 K, x2 = 0.8002 | 1014.68 ± 0.065
303.15 K, x2 = 0.85 | 1024.5 ± 0.067
303.15 K, x2 = 0.8999 | 1034.72 ± 0.07
303.15 K, x2 = 0.9502 | 1045.5 ± 0.073
303.15 K, x2 = 0.975 | 1051.05 ± 0.076
313.15 K, x2 = 0 | 888.472 ± 0.08
313.15 K, x2 = 0.0256 | 891.333 ± 0.082
313.15 K, x2 = 0.0501 | 894.082 ± 0.081
313.15 K, x2 = 0.0998 | 899.822 ± 0.08
313.15 K, x2 = 0.1514 | 905.948 ± 0.078
313.15 K, x2 = 0.2007 | 911.977 ± 0.077
313.15 K, x2 = 0.2506 | 918.225 ± 0.075
313.15 K, x2 = 0.3008 | 924.745 ± 0.073
313.15 K, x2 = 0.3499 | 931.26 ± 0.072
313.15 K, x2 = 0.4006 | 938.218 ± 0.07
313.15 K, x2 = 0.4501 | 945.282 ± 0.069
313.15 K, x2 = 0.5103 | 954.115 ± 0.067
313.15 K, x2 = 0.5503 | 960.19 ± 0.066
313.15 K, x2 = 0.5995 | 967.947 ± 0.065
313.15 K, x2 = 0.6499 | 976.16 ± 0.064
313.15 K, x2 = 0.6999 | 984.624 ± 0.063
313.15 K, x2 = 0.7503 | 993.432 ± 0.062
313.15 K, x2 = 0.8002 | 1002.61 ± 0.062
313.15 K, x2 = 0.8499 | 1012.09 ± 0.064
313.15 K, x2 = 0.9001 | 1022.04 ± 0.067
313.15 K, x2 = 0.9497 | 1032.41 ± 0.07
313.15 K, x2 = 0.975 | 1037.84 ± 0.072

C=C(C)C(=O)OCCCC [butyl 2-methyl-2-propenoate]
[2]
Details | mass density [kg/m3]
293.15 K | 895.231 ± 0.11
303.15 K | 885.991 ± 0.12
313.15 K | 876.19 ± 0.12

COC(=O)OC [dimethyl carbonate] + C=COC(C)=O
[1], x1 = 1
Details | mass density [kg/m3]
293.15 K | 1069.79 ± 0.067
303.15 K | 1056.75 ± 0.063
313.15 K | 1043.37 ± 0.06

C=COC(C)=O [vinyl acetate]
[2]
Details | mass density [kg/m3]
293.15 K | 931.95 ± 0.068
303.15 K | 919.089 ± 0.072
313.15 K | 906.116 ± 0.076
